Results on six compounds are retold here after patent US8367737B2, “Method of using biothionol and biothionol-like compounds as anti-angiogenic agents” (Southern Research Institute, priority 2007, dated 2013).

In general, IC50 refers to the concentration needed to halve the response being measured. Low values mean higher potency, high ones lower potency.

Assay [1] relates to Endothelial cells (HUVEC). Kind of assay: Endothelial tube formation assay. It is filed as cell-based. To be noted: Homo sapiens, read-out: Inhibition in Endothlia Tube-Formation. On the procedure:
Human endothelial cells are cultured in vitro on extracellular matrix, which stimulates the attachment and differentiation of endothelial cells into tubules. The endothelial tube formation assay is based on this phenomenon. Endothelial cells (HUVEC) are seeded (1.5×10^4 per well) in a 96-well plates coated with extracellular matrix and treated with the target compounds at different concentrations with the full growth medium in triplicate. The cells are allowed to form endothelial tubes at 37° C. for about 18 hours and photographed under an inverted light microscope. The tubule lengths are quantified using image analysis software, Image-Pro Plus (Media Cybernetics, Inc., Silver Spring, Md.). Data are expressed as average tube lengths of three view fields for each well and triplicate wells for each treatment condition. IC50 values are calculated based on the dose curve.

Assay [2] deals with arterial endothelia, such as HAEC and HPAEC. Kind of assay: Cell proliferation assay (CellTiter-Glo), arterial endothelia. In kind it is cell-based. To be noted: Homo sapiens; 72 hours of treatment, growth medium. On the procedure:
(§1) Human primary cell lines, arterial endothelia, such as HAEC and HPAEC, venous endothelia HUVEC (from Cambrex BioScience Rockland Inc.), and lung fibroblasts LL47 (from the American Type Culture Collection) are cultured by following the instruction and used to evaluate the target compounds for their differential activity against human endothelia verses fibroblasts by CellTiter-Glo Luminescent Cell viability Assay. This assay, generating luminescent signals, is based on quantification of ATP levels in cell cultures. Amount of ATP produced in cell culture reflects the number of viable cells. […] Cells are seeded in 96-well plates with their growth medium, about 5×10^3 cell per well. After 24 hours, various doses of the target compounds are added to the cultures, having four replicates for each dose. After 72 hours of treatment, CellTiter-Glo reagent is added to the cultures following the manufacturer's instruction and luminescence is measured. The control groups are given DMSO vehicle only. IC50s of target compounds for endothelia and fibroblasts proliferation in their growth medium are determined based on the dose response curve and plotted against the range of concentrations.
A general note: In ATP-based viability assays light output follows the ATP content of the culture.

In a further assay the test system is venous endothelia HUVEC. Kind of assay: Cell proliferation assay (CellTiter-Glo), venous endothelia. In kind it is cell-based. The note with it: Homo sapiens, 72 hours of treatment, growth medium. The procedure:
as §1

The subject of another assay is lung fibroblasts LL47. Put plainly: Cell proliferation assay (CellTiter-Glo), fibroblasts. In kind it is cell-based. To be noted: Homo sapiens, Fibroblast; 72 hours of treatment, growth medium. On the procedure:
as §1

The subject of assay [3] is Endothelial cells (HUVEC). Put plainly: Endothelial cell migration assay. In kind it is cell-based. The note with it: Homo sapiens, read-out: Inhibition in Endothlial migration. The procedure: Endothelial cell migration is a key step of the angiogenesis process, which is crucial for on-site recruitment of blood vessel formation. The trans-well filter/inserts chamber of Biocoat Endothelial Cell Migration Angiogenesis System (BD Biosciences) is used for endothelial cell migration assay, which is a 24-Transwell chamber plate containing 3-μm pore size inserts coated with human fibronectin. The inserts are incubated at 37° C. with 0.1% bovine serum albumin containing endothelial cell basal medium for 1 hour. Endothelial cells (HUVEC) are starved with 0.1% bovine serum albumin in endothelial cell basal medium for 4 to 5 hours before the cell harvest and then seeded (1×10^5 per well) in upper chambers of the Transwell plate with various treatments in 100 ul of 0.1% bovine serum albumin in endothelial cell basal medium. The full growth medium that contains various chemoattractants is added in the lower chambers. The cells are allowed to migrate for 22±1 hours at 37° C. Unmigrated cells at the inside of the inserts are carefully removed with a Q-tip. Migrated cells at the lower part of the Transwell inserts are then fixed with 4% paraformaldehyde, stained with Hoechst 33342, and photographed under a fluorescent microscope. Three microscopic view fields of each filter/insert are analyzed for the number of migrated cells. Triplicate filter/insert chamber cultures are carried for each test concentration and control.

The test system of assay [4] is Chicken embryo chorioallantoic membrane. Put plainly: Chick chorioallantoic membrane (CAM) assay. In kind it is in vivo. The note with it: 10 μg; vascular density index. The source says: Chicken embryo chorioallantoic membrane provides an ideal in vivo model for the physiologic process of angiogenesis. Angiogenic modulators applied on methylcellulose discs placed on top of chicken embryo chorioallantoic membrane are able to alter the development of new blood vasculature. See Staton et al, Current Methods for Assaying Angiogenesis in vitro and in vivo, INT. J. EXP. PATHOL., 85:233-48 (2004), which is incorporated herein by reference in its entirety. The angiogenesis chorioallantoic membrane assay is used for ex vivo evaluation of the anti-angiogenic potential of synthetic compounds. Fertilized chicken eggs are incubated at 37.5° C. in a humidified egg incubator with forced air circulation. On embryo Day 3, eggs are cracked open and embryos are transferred into […] Petri plates to continue their development in a cell culture incubator at 37.5° C. Pre-made methylcellulose discs in about 2 mm in diameter are gently implanted on top of embryo chorioallantoic membrane on embryonic Day 5 and then testing compound in solution or control vehicle is applied on top of methylcellulose disc. The embryos are incubated for two more days in the cell culture incubator. The chorioallantoic membranes are examined and quantitatively analyzed for new blood vessel formation at embryonic Day 7. The treatment effects on angiogenesis are evaluated by determining vascular density index (VDI) of each CAM with viable chicken embryos. The VDI represents the number of intersections made by blood vessels with three equidistant concentric circles on the area covered by methylcellulose discs by using Image Pro Plus software. The data are expressed as average VDI based on the quantitative analysis for each treatment group (N≧5) with stander deviation.

Counter-ions that a name gives are not always drawn.

As for `Oc1c(Cl)cc(Cl)cc1Sc1cc(Cl)cc(Cl)c1O` [Bithionol], the inhibition at 2 µM in assay [1] is 19%; in assay [3], 5%. The inhibition at 8 µM in assay [1] was 38%; in assay [3], 100%. The results for the IC50 (in assay [2]; in the assay on venous endothelia HUVEC; in the assay with lung fibroblasts LL47) were 2 µM, 6 µM and 10.5 µM, respectively. In assay [4], the “Inhibition in CAM Assay” value was found to be 30%.
In the case of `CC(C)(C)c1ccc(C(O)CCCN2CCC(C(O)(c3ccccc3)c3ccccc3)CC2)cc1` (centres unmarked) [Terfenadine], the inhibition at 2 µM in assay [1] is 20%; in assay [3], 34%. Moreover, the figures for the inhibition at 8 µM in assay [1] and in assay [3] were 43% and 100%, respectively. Further, the half-inhibitory concentration (IC50) in assay [2] was determined as 3 µM; with venous endothelia HUVEC, 5.5 µM; in the assay with lung fibroblasts LL47, 7 µM. In assay [4], the “Inhibition in CAM Assay” value stood at 28%.
For `CCCCc1oc2ccccc2c1C(=O)c1cc(I)c(OCCN(CC)CC)c(I)c1` [Amiodarone hydrochloride], in assay [1], the inhibition at 2 µM was found to be 33% and the inhibition at 8 µM stood at 33%. Further, in assay [3], the inhibition at 2 µM stood at 36% and the inhibition at 8 µM was 38%. In addition, the “Inhibition in CAM Assay” value in assay [4] came out at 27%.
In the case of `Cc1nc2sccn2c(=O)c1CCN1CCC(=C(c2ccc(F)cc2)c2ccc(F)cc2)CC1` [Ritanserin], the inhibition at 2 µM in assay [1] was 11%; in assay [3], 55%. Also, the inhibition at 8 µM came to 33% in assay [1] and 65% in assay [3]. Further, the IC50 was 11 µM in assay [2], 10.5 µM in the assay with venous endothelia HUVEC and greater than 50 µM with lung fibroblasts LL47. Besides, the “Inhibition in CAM Assay” value in assay [4] worked out at 21%.
As to `OCCN1CCN(CCCN2c3ccccc3Sc3ccc(Cl)cc32)CC1` [Perphenazine], the inhibition at 2 µM amounted to 7% in assay [1] and 43% in assay [3]. Besides, the inhibition at 8 µM turned out to be 22% in assay [1] and 46% in assay [3]. In addition, the IC50 amounted to 4.2 µM in assay [2], 11.1 µM in the assay with venous endothelia HUVEC and 10.8 µM with lung fibroblasts LL47.
For `CN(C)CCCN1c2ccccc2CCc2ccc(Cl)cc21` [Clomipramine hydrochloride], the inhibition at 2 µM in assay [1] turned out to be 12%; in assay [3] it was 58%. For the same compound, the results for the inhibition at 8 µM in assay [1] and in assay [3] were 26% and 63%, respectively. Further, the “Inhibition in CAM Assay” value in assay [4] was 19%.
